Measurements reported in ChEMBL document CHEMBL1136590, “Synthesis, spectral studies and screening for amoebicidal activity of new palladium(II) complexes derived from thiophene-2-carboxaldehyde thiosemicarbazones” (Bioorg Med Chem Lett, 2003).
pIC50: −log10 of the molar value.

test system: Entamoeba histolytica; test: In vitro amoebicidal activity against HM-1:1MMS strain of Entamoeba histolytica; assay type: functional, organism-based; conditions: not given

**Q.** “3,4-Dihydro-2H-quinoline-1-carbothioic acid thiophen-2-ylmethylene-hydrazide with PdCl2 complex” was tested. Which pIC50 did it give?
**A.** 5.94

**Q.** With “Di(methylsulfinyl)methane with PdCl2 complex” as the molecule, how does the pIC50 read?
**A.** 5.08

**Q.** With “thiophene-2-carbaldehyde N-(2,4-difluorophenyl)thiosemicarbazone with PdCl2 complex” as the molecule, how does the pIC50 read?
**A.** 5.58

**Q.** “thiophene-2-carbaldehyde N-(2,6-difluorophenyl)thiosemicarbazone with PdCl2 complex” was tested. Which pIC50 did it give?
**A.** 5.62

**Q.** With “thiophene-2-carbaldehyde N-(2-chlorobenzyl)thiosemicarbazone with PdCl2 complex” as the molecule, how does the pIC50 read?
**A.** 5.51

same assay, conditions: Entamoeba histolytica

**Q.** With Fc1cccc(F)c1/N=C(\S)N/N=C/c1cccs1 as the molecule, how does the pIC50 read?
**A.** 5.24

**Q.** S=C(NCc1ccccc1Cl)N/N=C/c1cccs1 was tested. Which pIC50 did it give?
**A.** 5.24

**Q.** With Fc1ccc(/N=C(\S)N/N=C/c2cccs2)c(F)c1 as the molecule, how does the pIC50 read?
**A.** 5.21

**Q.** With S=C(N/N=C/c1cccs1)N1CCCc2ccccc21 as the molecule, how does the pIC50 read?
**A.** 5.56

**Q.** How did the pIC50 turn out when S=C(N/N=C/c1cccs1)N1CCCC1 was run?
**A.** 5.49

**Q.** How did the pIC50 turn out when Cc1ncc([N+](=O)[O-])n1CCO [METRONIDAZOLE] was run?
**A.** 5.69
